Experimental data published in US9017985B2, “Photosynthetic microorganisms enriched in selenium using selenohydroxy acid compounds, used thereof in nutrition, cosmetics and pharmacy” (Metabolium, priority 2008, dated 2015).

Columns and labels:
[1] = diet supplementation; cited from earlier work
[2] = system: Chlorella vulgaris SAG211-11B; assay: Selenium enrichment of Chlorella vulgaris microalga cultured with a selenium source, mixotrophic conditions; analysis of selenium components; type: cell-based; conditions: 20 mgSe/l added once in exponential growth phase; 7 days incubation; mean of triplicate
Description: In these tests, the strain used is a strain of Chlorella vulgaris SAG211-11B: an axenic strain originating from the SAG collection of the University of Göttingen (SAG: Sammlung von Algenkulturen der Universität Göttingen [Collection of Alga Cultures of the University of Göttingen]) which was cultured under mixotrophic conditions in the following medium:
(§1) The pH was adjusted to 7.2 and the medium was autoclaved at 121° C. for 15 minutes.
The organic source of selenium, namely 2-hydroxy-4-methylselenobutanoic acid (THD-177, Tetrahedron SAS, France, CAS: 873660-49-2) was administered at a concentration of 20 mg/l on a selenium equivalent basis, i.e. 50 mg/l of 2-hydroxy-4-methylselenobutanoic acid.
The inorganic selenium source ([…], sodium selenite) was administered at a concentration of 20 mg/l on a selenium equivalent basis, i.e. 43.9 mg/l of sodium selenite.
The compound containing selenium was added just one time in the exponential growth phase of the Chlorella vulgaris strain (i.e. 3 days after the inoculation).
(§2) After incubation for 7 days, the medium was filtered through a 0.2 micron Nalgene membrane (Ref a-PES, diameter 90 mm), and the cell retentate was rinsed with physiological saline. The wet cell mass was lyophilized for analysis of the constituents containing selenium (total selenium, selenomethionine and sodium selenite).
(§3) The total selenium was assayed by ICP coupled to detection by mass, after mineralization of the sample. The speciation of the selenium was carried out by high performance liquid chromatography coupled to tandem mass detection, after enzyme digestion of the sample, according to the method described by Lobinsky et al., in Mester, Z. et al. (2006) Annal. Bioanal. Chem. 385: 168-180.
Table 1 below indicates the average values, on a selenium equivalent basis, obtained in triplicate for incubation times of 7 days.

[3] = system: Arthrospira platensis 3054-E0001; assay: Selenium enrichment of Arthrospira platensis microalga cultured with a selenium source, autotrophic conditions; analysis of selenium components; type: cell-based; conditions: 25 mgSe/l added once just after inoculation (T=0); 10 days incubation; mean of triplicate
Description: In these tests, the strain used is a strain of Arthrospira platensis 3054-E0001.
The 3054-50001 strain was cultured under autotrophic conditions in the following medium:
as §1
The organic source of selenium, namely 2-hydroxy-4-methylselenobutanoic acid (THD-177, Tetrahedron SAS, France, CAS: 873660-49-2) was administered at a concentration of 25 mg/l on a selenium equivalent basis, i.e. 62.5 mg/l of 2-hydroxy-4-methylselenobutanoic acid.
The inorganic selenium source ([…], sodium selenite) was administered at a concentration of 25 mg/l on a selenium equivalent basis, i.e. 54.4 mg/l of sodium selenite.
The compound containing selenium was added just one time, just after the inoculation with the Arthrospira platensis strain (i.e. T=0).
as §2, with “10” for “7”, “cell pellet” for “medium”, “membrane,” for “membrane (Ref a-PES, diameter 90 mm),”
as §3
Table 2 below indicates the average values, on a selenium equivalent basis, obtained in triplicate for incubation times of 10 days.
In these tests, the strain used is a strain of Arthrospira platensis 3054-E0001. […]

For C[Se]CC[C@H](N)C(=O)O [L(+)-selenomethionine], the “Toxicity compared with an intake in the form of sodium selenite” value [1] is given as “much less toxic”.

For O=[Se](O)O [NaSe, sodium selenite], the “Se(IV)” value [2] was 4.1 ± 0.4 mgSe/kg biomass, the SeMethionine [2] was 29 ± 2 mgSe/kg biomass and the “Total Se” value [2] was 144 ± 5 mgSe/kg biomass. The “Se(IV)” value [3] was 5.1 ± 0.3 mgSe/kg biomass, the SeMethionine [3] was 13 ± 3 mgSe/kg biomass and the “Total Se” value [3] was 177 ± 2 mgSe/kg biomass.
